Legend:
BTK enzyme = target: T1, BTK enzyme (Homo sapiens, UniProt Q06187); assay: In vitro BTK kinase assay: BTK-POLYGAT-LS assay; format: biochemical; conditions: ATP 10 μM, read-out: IC50 (10uMATP)
T1 construct: purchased Upstate 14-552
How it was run: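 Human BTK activity was measured with final 10 μM ATP and 100 nM polyGAT substrate in pH 7.5 Tris buffer with 10 mM MgCl2, DTT, Triton X-100 and casein.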

[1] = target: BTK (phospho-BTK) in human whole blood (Homo sapiens, UniProt Q06187); assay: In vitro PD assay in human whole blood (pBTK assay)
Sequence of BTK (phospho-BTK) in human whole blood (Q06187 whole entry): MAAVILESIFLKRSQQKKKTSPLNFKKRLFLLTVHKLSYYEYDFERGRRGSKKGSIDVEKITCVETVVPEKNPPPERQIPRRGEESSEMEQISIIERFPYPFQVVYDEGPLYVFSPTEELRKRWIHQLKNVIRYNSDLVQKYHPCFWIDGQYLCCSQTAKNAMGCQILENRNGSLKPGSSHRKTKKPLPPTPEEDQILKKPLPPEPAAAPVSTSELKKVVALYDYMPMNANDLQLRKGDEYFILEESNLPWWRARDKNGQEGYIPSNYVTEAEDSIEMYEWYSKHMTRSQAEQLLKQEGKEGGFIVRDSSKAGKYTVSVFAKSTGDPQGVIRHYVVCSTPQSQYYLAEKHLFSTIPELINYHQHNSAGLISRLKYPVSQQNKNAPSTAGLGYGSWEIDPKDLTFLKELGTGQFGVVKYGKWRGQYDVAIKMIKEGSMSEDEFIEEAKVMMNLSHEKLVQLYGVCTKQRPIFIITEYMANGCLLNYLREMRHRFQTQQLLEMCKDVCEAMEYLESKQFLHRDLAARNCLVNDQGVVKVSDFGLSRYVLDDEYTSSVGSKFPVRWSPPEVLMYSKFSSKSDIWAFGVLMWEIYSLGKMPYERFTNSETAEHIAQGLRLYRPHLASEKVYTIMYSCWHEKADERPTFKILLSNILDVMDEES

T1 sequence (Q06187 whole entry): as above

For `Cc1cc(-c2ccnc(Nc3cnn4c3CCC4)n2)ccc1CNC(=O)N1CC(OC(C)(C)C)C1` [Example I-322, 3-tert-butoxy-N-[[4-[2-(5,6-dihydro-4H-pyrrolo[1,2-b]pyrazol-3-ylamino)pyrimidin-4-yl]-2-methyl-phenyl]methyl]azetidine-1-carboxamide], the IC50 (BTK enzyme) was < 10 nM and the IC50 [1] was < 500 nM.
`COCCc1cc(-c2ccnc(Nc3cnn4c3CCC4)n2)ccc1CNC(=O)N1CC(OC(C)(C)C)C1` [Example I-323, 3-tert-butoxy-N-[[4-[2-(5,6-dihydro-4H-pyrrolo[1,2-b]pyrazol-3-ylamino)pyrimidin-4-yl]-2-(2-methoxyethyl)phenyl]methyl]azetidine-1-carboxamide] was tested, and the IC50 (BTK enzyme) was < 10 nM and the IC50 [1] was < 500 nM.
For `CC(C)(C)C1CCN(C(=O)NCc2ccc(-c3ccnc(Nc4cnn5c4CCC5)n3)cc2CCO)C1` (stereo not shown) [Example I-324, 3-tert-butyl-N-[[4-[2-(5,6-dihydro-4H-pyrrolo[1,2-b]pyrazol-3-ylamino)pyrimidin-4-yl]-2-(2-hydroxyethyl)phenyl]methyl]pyrrolidine-1-carboxamide], the IC50 (BTK enzyme) was < 10 nM and the IC50 [1] was < 500 nM.
For `COCCc1cc(-c2ccnc(Nc3cnn4c3CCC4)n2)ccc1CNC(=O)N1CC[C@@H](C(C)(C)C)C1` [Example I-325, (3S)-3-tert-butyl-N-[[4-[2-(5,6-dihydro-4H-pyrrolo[1,2-b]pyrazol-3-ylamino)pyrimidin-4-yl]-2-(2-methoxyethyl)phenyl]methyl]pyrrolidine-1-carboxamide], the IC50 (BTK enzyme) was < 10 nM and the IC50 [1] was < 500 nM.
With `CC(C)OC1CN(C(=O)NC2CCCc3cc(-c4ccnc(Nc5cnn(C6CCN(C)CC6)c5)n4)ccc32)C1` (stereo not shown) [Example I-326, 3-isopropoxy-N-[6-[2-[[1-(1-methyl-4-piperidyl)pyrazol-4-yl]amino]pyrimidin-4-yl]tetralin-1-yl]azetidine-1-carboxamide] the IC50 (BTK enzyme) was < 10 nM and the IC50 [1] was < 500 nM.
In the case of `CC(C)(C)C1CCN(C(=O)NC2CCCc3cc(-c4ccnc(Nc5cnn(CCO)c5)n4)ccc32)C1` (stereo not shown) [Example I-327], the IC50 (BTK enzyme) is reported as < 10 nM and the IC50 [1] is reported as < 500 nM.
`CCn1cc(Nc2nccc(-c3ccc4c(c3)CCCCC4NC(=O)N3CCC(C(C)(C)C)C3)n2)cn1` (stereo not shown) [Example I-328] was tested, and the IC50 (BTK enzyme) was < 10 nM and the IC50 [1] was < 500 nM.
In the case of `CC(C)OC1CN(C(=O)NC2CCN(C=O)Cc3cc(-c4ccnc(Nc5cnn(C)c5)n4)ccc32)C1` (stereo not shown) [Example I-329, N-[2-formyl-8-[2-[(1-methylpyrazol-4-yl)amino]pyrimidin-4-yl]-1,3,4,5-tetrahydro-2-benzazepin-5-yl]-3-isopropoxy-azetidine-1-carboxamide], the IC50 (BTK enzyme) is reported as < 10 nM and the IC50 [1] is reported as < 500 nM.
For `CC(C)(C)C1CCN(C(=O)NC2CCCCc3cc(-c4ccnc(Nc5cnn(C6CCOCC6)c5)n4)ccc32)C1` (stereo not shown) [Example I-330, 3-tert-butyl-N-[2-[2-[(1-tetrahydropyran-4-ylpyrazol-4-yl)amino]pyrimidin-4-yl]-6,7,8,9-tetrahydro-5H-benzo[7]annulen-5-yl]pyrrolidine-1-carboxamide], the IC50 (BTK enzyme) was < 10 nM and the IC50 [1] was < 500 nM.
`CCOC1CN(C(=O)NC2CCCCc3cc(-c4ccnc(Nc5cnn(C)c5)n4)ccc32)C1` (stereo not shown) [Example I-331, 3-ethoxy-N-[2-[2-[(1-methylpyrazol-4-yl)amino]pyrimidin-4-yl]-6,7,8,9-tetrahydro-5H-benzo[7]annulen-5-yl]azetidine-1-carboxamide] was tested, and the IC50 (BTK enzyme) was < 10 nM and the IC50 [1] was < 500 nM.
In the case of `CC(C)(C)OC1CN(C(=O)NC2CCCCc3cc(-c4cc(Nc5cc6n(n5)CCOC6)ncn4)ccc32)C1` (stereo not shown) [Example I-332, 3-tert-butoxy-N-[2-[6-(6,7-dihydro-4H-pyrazolo[5,1-c][1,4]oxazin-2-ylamino)pyrimidin-4-yl]-6,7,8,9-tetrahydro-5H-benzo[7]annulen-5-yl]azetidine-1-carboxamide], the IC50 (BTK enzyme) is reported as < 10 nM and the IC50 [1] is reported as < 500 nM.
`CC(C)OC1CN(C(=O)NC2CCCCc3cc(-c4ccnc(Nc5cnn([C@@H]6CCOC6)c5)n4)ccc32)C1` (stereo partly drawn) [Example I-333, 3-isopropoxy-N-[2-[2-[[1-[(3R)-tetrahydrofuran-3-yl]pyrazol-4-yl]amino]pyrimidin-4-yl]-6,7,8,9-tetrahydro-5H-benzo[7]annulen-5-yl]azetidine-1-carboxamide] was tested, and the IC50 (BTK enzyme) was < 10 nM and the IC50 [1] was < 500 nM.
`CC(C)(C)OC1CN(C(=O)NC2CCCCc3cc(-c4ccnc(Nc5cnn([C@H]6CCOC6)c5)n4)ccc32)C1` (stereo partly drawn) [Example I-334, 3-tert-butoxy-N-[2-[2-[[1-[(3S)-tetrahydrofuran-3-yl]pyrazol-4-yl]amino]pyrimidin-4-yl]-6,7,8,9-tetrahydro-5H-benzo[7]annulen-5-yl]azetidine-1-carboxamide] was tested, and the IC50 (BTK enzyme) was < 10 nM and the IC50 [1] was < 500 nM.
`CC(C)OC1CN(C(=O)NC2CCCOc3cc(-c4ccnc(Nc5cnn(C)c5)n4)ccc32)C1` (stereo not shown) [Example I-335, 3-isopropoxy-N-[8-[2-[(1-methylpyrazol-4-yl)amino]pyrimidin-4-yl]-2,3,4,5-tetrahydro-1-benzoxepin-5-yl]azetidine-1-carboxamide] was tested, and the IC50 (BTK enzyme) was < 10 nM and the IC50 [1] was < 500 nM.
`CC(C)OC1CN(C(=O)NC2CCCCc3cc(-c4ccnc(Nc5cnn(CC(C)(C)O)c5)n4)ccc32)C1` (stereo not shown) [Example I-336, N-[2-[2-[[1-(2-hydroxy-2-methyl-propyl)pyrazol-4-yl]amino]pyrimidin-4-yl]-6,7,8,9-tetrahydro-5H-benzo[7]annulen-5-yl]-3-isopropoxy-azetidine-1-carboxamide] was tested, and the IC50 (BTK enzyme) was < 10 nM and the IC50 [1] was < 500 nM.
In the case of `CC(C)(O)Cn1cc(Nc2nccc(-c3ccc4c(c3)CCCCC4NC(=O)N3CC(OC(C)(C)C)C3)n2)cn1` (stereo not shown) [Example I-337, 3-tert-butoxy-N-[2-[2-[[1-(2-hydroxy-2-methyl-propyl)pyrazol-4-yl]amino]pyrimidin-4-yl]-6,7,8,9-tetrahydro-5H-benzo[7]annulen-5-yl]azetidine-1-carboxamide], the IC50 (BTK enzyme) is reported as < 10 nM and the IC50 [1] is reported as < 500 nM.
`CC(C)OC1CN(C(=O)NC2CCCCc3cc(-c4ccnc(Nc5cnn([C@H]6CCOC6)c5)n4)ccc32)C1` (stereo partly drawn) [Example I-338, 3-isopropoxy-N-[2-[2-[[1-[(3S)-tetrahydrofuran-3-yl]pyrazol-4-yl]amino]pyrimidin-4-yl]-6,7,8,9-tetrahydro-5H-benzo[7]annulen-5-yl]azetidine-1-carboxamide] was tested, and the IC50 (BTK enzyme) was < 10 nM and the IC50 [1] was < 500 nM.
With `COC1CN(C(=O)NC2CCCCc3cc(-c4ccnc(Nc5cnn(C)c5)n4)ccc32)C1` (stereo not shown) [Example I-339, 3-methoxy-N-[2-[2-[(1-methylpyrazol-4-yl)amino]pyrimidin-4-yl]-6,7,8,9-tetrahydro-5H-benzo[7]annulen-5-yl]azetidine-1-carboxamide] the IC50 (BTK enzyme) was 10 to 99 nM and the IC50 [1] was < 500 nM.
With `CCn1cc(Nc2nccc(-c3ccc4c(c3)CCCCC4NC(=O)N3CCC(C(C)C)C3)n2)cn1` (stereo not shown) [Example I-341, N-[2-[2-[(1-ethylpyrazol-4-yl)amino]pyrimidin-4-yl]-6,7,8,9-tetrahydro-5H-benzo[7]annulen-5-yl]-3-isopropyl-pyrrolidine-1-carboxamide] the IC50 (BTK enzyme) was < 10 nM and the IC50 [1] was < 500 nM.
For `CC(C)C1CCN(C(=O)NC2CCCCc3cc(-c4ccnc(Nc5cnn(C6CCOCC6)c5)n4)ccc32)C1` (stereo not shown) [Example I-342, 3-isopropyl-N-[2-[2-[(1-tetrahydropyran-4-ylpyrazol-4-yl)amino]pyrimidin-4-yl]-6,7,8,9-tetrahydro-5H-benzo[7]annulen-5-yl]pyrrolidine-1-carboxamide], the IC50 (BTK enzyme) was < 10 nM and the IC50 [1] was < 500 nM.

Reference: patent publication US10759783B2, “Biaryl inhibitors of Bruton'S tyrosine kinase” (BIOGEN MA INC., priority 2013, dated 2020)
